# Reference: US11624093B2, “Tumor suppressor and oncogene biomarkers predictive of anti-immune checkpoint inhibitor response” (Dana-Farber Cancer Institute, Inc., priority 2014, dated 2023)
# Columns and labels:
# [1] = test system: Kras mutant mice, total lung and tumor infiltrating immune cells; test: Immune cell analysis of lungs of Kras mutant mice treated with the arginase inhibitor; format: in vivo, mouse; details: 30 mg/kg once daily gavage, 1 week
# Source text: (§1) All EGFR transgenic mice carrying tetracycline inducible human EGFR cDNA were previously generated, crossed with CC10-RTTA mice expressing reverse tetracycline activator from lung Clara cell CC10 promoter, and maintained in mixed background. Double positive progeny were fed with doxycycline diet starting at 5-6 weeks of age for the induction of tumors and maintained on doxycyline throughout the study. EGFR and KrasG12D mice were maintained in mixed (C57Bl/6, FVB, and S129) background and given adeno virus expressing Cre recombinase (5×10^6 titer) intranasally at 5 weeks of age for induction of recombination and tumor formation. All breedings and in vivo experiments were performed with the approval of the DFC1 Animal Care and Use Committee.
# (§2) The arginase inhibitor (R)-2-Amino-6-borono-2-(2-(piperidin-1-yl)ethyl)hexanoic acid, also known as compound HY-15775/compound 9, was obtained from MedChem Express and is well known in the art (see, for example, Van Zandt et al. (2013) J. Med. Chem. 56:2568-2580). The compound was administered to mice at 30 mg/kg in phosphate-buffered saline (PBS) via oral gavage once daily.
# Total lung cell and tumor infiltrating immune cell characterization was performed as described in Akbay et al. (2013) Cancer Discov. 3:1355-1363.
# [2] = test system: lung tumors of Kras^G12D mice; test: MRI lung tumor volume quantification in Kras^G12D mice treated with the arginase inhibitor; format: in vivo, mouse; details: 30 mg/kg once daily gavage, 1 week
# Source text: as §1, §2
# Animals were anesthetized with 1.5-2% isoflurane (IsoFlo; Abbott) in 100% oxygen. […] Tumor volume quantifications were performed using 3D-Slicer software as described in Weaver et al. (2012) Cancer Res. 72:921-933.
compound,measurement,setting,value
"N[C@](CCCCB(O)O)(CCN1CCCCC1)C(=O)O [compound 9/HY-15775, (R)-2-Amino-6-borono-2-(2-(piperidin-1-yl)ethyl)hexanoic acid]",CD8 T cells in the total T cell population,[1],increase
same,CD11c and CD11b myeloid populations,[1],no change
same,ratio of CD4 T cells in the total T cell population,[1],decrease
same,ratio of CD8 to FoxP3 cells (cytotoxic T cells to regulatory T cells),[1],increase
same,total T cell counts,[1],increase
same,"lung tumor volumes (change compared to baseline, MRI)",[2],decreases
